pIC50: −log10 of the molar value. Where two headings read alike, the source gives them in different places.
Legend:
TYK2 JH2 domain = TYK2 JH2 domain (Homo sapiens (Human), UniProt P29597); experiment: TYK2 JH2 NanoBRET assay; type: binding; settings: Table 20, read-out: TYK2 IC50
In short: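 Tracer displacement measured by BRET ratio (acceptor over donor) in live HEK293T cells transfected with a NanoLuc-tagged TYK2 JH2 construct; cells co-exposed to test compound and 0.5 µM final K10 tracer for 2 h before substrate/extracellular inhibitor addition.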

human JAK1 = human JAK1 (Homo sapiens (Human), UniProt P23458); experiment: JAK1 TR-FRET kinase assay; type: biochemical
human JAK2 = human JAK2 (Homo sapiens (Human), UniProt O60674); experiment: JAK2 TR-FRET kinase assay; type: biochemical; settings: JAK2 0.025 nM
human JAK3 = human JAK3 (Homo sapiens (Human), UniProt P52333); experiment: JAK3 TR-FRET kinase assay; type: biochemical; settings: JAK3 0.0125 nM
Chain of human JAK3 (P52333 whole entry): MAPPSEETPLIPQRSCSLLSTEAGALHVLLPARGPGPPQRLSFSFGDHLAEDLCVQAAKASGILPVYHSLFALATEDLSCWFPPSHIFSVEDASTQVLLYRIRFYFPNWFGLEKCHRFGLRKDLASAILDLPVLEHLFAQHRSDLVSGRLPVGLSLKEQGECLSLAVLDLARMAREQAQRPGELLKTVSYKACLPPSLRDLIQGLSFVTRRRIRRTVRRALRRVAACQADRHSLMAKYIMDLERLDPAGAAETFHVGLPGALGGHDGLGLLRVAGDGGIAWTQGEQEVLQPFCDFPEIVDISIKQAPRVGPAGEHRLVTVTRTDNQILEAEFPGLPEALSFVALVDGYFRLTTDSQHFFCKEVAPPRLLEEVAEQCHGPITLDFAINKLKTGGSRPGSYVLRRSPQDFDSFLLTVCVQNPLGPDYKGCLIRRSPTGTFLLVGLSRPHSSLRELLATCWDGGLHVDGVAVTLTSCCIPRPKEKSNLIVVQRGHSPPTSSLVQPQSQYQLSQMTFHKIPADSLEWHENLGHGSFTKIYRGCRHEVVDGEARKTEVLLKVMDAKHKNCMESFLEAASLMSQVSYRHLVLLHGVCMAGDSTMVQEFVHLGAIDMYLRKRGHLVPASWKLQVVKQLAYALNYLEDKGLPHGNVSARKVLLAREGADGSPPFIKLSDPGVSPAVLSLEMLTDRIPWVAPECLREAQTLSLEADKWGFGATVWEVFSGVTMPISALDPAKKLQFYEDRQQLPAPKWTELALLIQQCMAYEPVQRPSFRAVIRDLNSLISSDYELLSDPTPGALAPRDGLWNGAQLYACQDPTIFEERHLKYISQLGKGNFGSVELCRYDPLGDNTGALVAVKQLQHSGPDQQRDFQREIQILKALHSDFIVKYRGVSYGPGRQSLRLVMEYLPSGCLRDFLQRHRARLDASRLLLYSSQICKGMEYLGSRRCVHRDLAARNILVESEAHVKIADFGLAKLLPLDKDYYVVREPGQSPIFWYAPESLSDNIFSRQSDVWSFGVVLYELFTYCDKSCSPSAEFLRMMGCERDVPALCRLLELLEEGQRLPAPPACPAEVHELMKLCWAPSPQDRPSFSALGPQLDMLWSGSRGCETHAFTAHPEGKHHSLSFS

Chain of human JAK2 (O60674 whole entry): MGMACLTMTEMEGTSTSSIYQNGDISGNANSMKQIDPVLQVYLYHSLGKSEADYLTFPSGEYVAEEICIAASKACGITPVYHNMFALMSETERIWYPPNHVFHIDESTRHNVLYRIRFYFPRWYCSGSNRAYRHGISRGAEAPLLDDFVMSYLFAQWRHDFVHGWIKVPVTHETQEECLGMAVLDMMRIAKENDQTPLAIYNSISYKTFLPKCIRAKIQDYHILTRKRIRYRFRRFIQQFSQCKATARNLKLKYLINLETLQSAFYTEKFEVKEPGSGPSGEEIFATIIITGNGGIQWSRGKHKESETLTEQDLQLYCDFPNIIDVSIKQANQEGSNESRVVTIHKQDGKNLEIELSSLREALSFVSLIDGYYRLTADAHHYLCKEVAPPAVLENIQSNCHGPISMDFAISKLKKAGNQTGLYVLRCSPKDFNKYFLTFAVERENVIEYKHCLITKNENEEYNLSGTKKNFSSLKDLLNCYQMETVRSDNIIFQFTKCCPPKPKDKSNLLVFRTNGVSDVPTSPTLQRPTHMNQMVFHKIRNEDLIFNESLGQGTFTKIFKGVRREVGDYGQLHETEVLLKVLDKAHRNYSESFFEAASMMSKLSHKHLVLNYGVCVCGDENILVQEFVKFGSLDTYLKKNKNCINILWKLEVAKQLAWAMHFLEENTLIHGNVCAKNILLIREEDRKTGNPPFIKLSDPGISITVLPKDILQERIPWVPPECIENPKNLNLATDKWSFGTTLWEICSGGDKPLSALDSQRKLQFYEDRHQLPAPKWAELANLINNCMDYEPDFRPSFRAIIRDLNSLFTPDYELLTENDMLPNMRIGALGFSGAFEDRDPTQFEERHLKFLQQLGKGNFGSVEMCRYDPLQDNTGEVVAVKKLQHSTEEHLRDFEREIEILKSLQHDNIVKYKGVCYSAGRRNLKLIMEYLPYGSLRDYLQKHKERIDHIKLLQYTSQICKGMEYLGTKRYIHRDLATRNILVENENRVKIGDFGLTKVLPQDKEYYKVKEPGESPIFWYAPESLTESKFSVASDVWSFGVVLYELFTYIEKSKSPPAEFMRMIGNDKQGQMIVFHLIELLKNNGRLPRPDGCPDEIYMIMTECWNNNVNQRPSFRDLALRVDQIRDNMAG
Chain of TYK2 JH2 domain (P29597 589-875): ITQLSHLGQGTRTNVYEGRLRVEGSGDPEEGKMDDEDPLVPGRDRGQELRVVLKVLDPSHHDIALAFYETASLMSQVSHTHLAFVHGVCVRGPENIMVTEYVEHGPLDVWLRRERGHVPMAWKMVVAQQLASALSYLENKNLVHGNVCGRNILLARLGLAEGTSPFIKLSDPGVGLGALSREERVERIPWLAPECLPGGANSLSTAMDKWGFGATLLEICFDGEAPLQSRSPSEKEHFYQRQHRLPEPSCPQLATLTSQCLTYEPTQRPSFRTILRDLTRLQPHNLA
Chain of human JAK1 (P23458 whole entry): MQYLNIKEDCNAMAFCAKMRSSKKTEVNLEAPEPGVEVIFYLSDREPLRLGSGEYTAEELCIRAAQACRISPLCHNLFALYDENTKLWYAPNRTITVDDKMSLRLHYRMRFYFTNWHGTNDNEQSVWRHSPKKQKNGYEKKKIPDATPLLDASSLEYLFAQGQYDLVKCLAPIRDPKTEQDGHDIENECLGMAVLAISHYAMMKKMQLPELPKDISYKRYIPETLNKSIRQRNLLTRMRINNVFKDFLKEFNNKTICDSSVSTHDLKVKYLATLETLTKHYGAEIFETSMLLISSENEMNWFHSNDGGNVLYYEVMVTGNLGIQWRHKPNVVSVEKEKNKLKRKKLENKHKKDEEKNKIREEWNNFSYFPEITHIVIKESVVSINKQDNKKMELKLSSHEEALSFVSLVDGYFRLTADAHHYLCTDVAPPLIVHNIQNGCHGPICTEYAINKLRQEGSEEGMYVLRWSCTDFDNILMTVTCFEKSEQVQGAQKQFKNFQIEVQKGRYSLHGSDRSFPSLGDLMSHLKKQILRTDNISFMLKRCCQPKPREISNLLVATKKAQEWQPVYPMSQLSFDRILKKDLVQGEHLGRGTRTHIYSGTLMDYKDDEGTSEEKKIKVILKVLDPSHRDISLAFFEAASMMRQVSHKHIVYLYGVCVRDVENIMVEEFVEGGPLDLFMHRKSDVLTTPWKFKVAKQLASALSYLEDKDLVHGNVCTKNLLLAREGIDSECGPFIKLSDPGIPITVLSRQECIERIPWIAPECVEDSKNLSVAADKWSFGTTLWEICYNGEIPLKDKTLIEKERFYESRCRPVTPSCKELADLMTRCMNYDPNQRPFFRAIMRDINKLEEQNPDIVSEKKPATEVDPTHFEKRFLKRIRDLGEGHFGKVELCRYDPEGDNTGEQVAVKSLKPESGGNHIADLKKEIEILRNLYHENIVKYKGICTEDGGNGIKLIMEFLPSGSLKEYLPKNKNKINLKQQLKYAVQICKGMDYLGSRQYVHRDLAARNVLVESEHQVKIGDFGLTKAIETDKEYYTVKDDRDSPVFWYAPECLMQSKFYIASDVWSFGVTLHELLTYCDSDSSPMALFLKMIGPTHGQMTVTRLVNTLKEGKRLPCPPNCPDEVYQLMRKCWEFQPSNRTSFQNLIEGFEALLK

Row | pIC50 (TYK2 JH2 domain) | pIC50 (human JAK1; TR-FRET, JAK1 2.5 nM) | pIC50 (human JAK2) | pIC50 (human JAK3) | Compound | pIC50 (human JAK1)
1 | 7.30 to 8.30 | ≤ 6.30 | ≤ 6.30 | 6.30 to 7.30 | CCC(=O)c1cnc(Nc2ccc(O[C@@H]3CCN(C)C3)cn2)cc1Nc1cccc(-c2ncc(F)cn2)c1OC [Compound 18VVV] | –
2 | 7.30 to 8.30 | ≤ 6.30 | ≤ 6.30 | ≤ 6.30 | CCC(=O)c1cnc(Nc2cnc(C(NC)C(F)(F)F)cn2)cc1Nc1cccc(-c2ncn(C)n2)c1OC (centres unmarked) [Compound 9UUU] | –
3 | > 8.30 | ≤ 6.30 | 6.30 to 7.30 | 6.30 to 7.30 | CCC(=O)c1cnc(Nc2cc(CN3CCCC3)sn2)cc1Nc1cccc(-c2ncn(C)n2)c1OC [Compound 21I] | –
4 | ≤ 6.30 | ≤ 6.30 | ≤ 6.30 | ≤ 6.30 | CCC(=O)c1cnc(NC(=O)CC2CN(C)C2)cc1Nc1cccc(-c2ncn(C)n2)c1OC [Compound 23G] | –
5 | > 8.30 | ≤ 6.30 | ≤ 6.30 | ≤ 6.30 | CCC(=O)c1cnc(Nc2ccc(C3(N)CC3)cn2)cc1Nc1cccc(-c2ncn(C)n2)c1OC [Compound 9O] | –
6 | 7.30 to 8.30 | ≤ 6.30 | ≤ 6.30 | ≤ 6.30 | CCC(=O)c1cnc(Nc2ccc(C(C)N)nn2)cc1Nc1cccc(-c2ncn(C)n2)c1OC (centres unmarked) [Compound 9III] | –
7 | > 8.30 | ≤ 6.30 | ≤ 6.30 | ≤ 6.30 | CCC(=O)c1cnc(Nc2cc(C(=O)NC)ncn2)cc1Nc1cccc(-c2ncn(C)n2)c1OC [Compound 8N] | –
8 | 6.30 to 7.30 | ≤ 6.30 | ≤ 6.30 | ≤ 6.30 | CCC(=O)c1cnc(NC(=O)CCNC)cc1Nc1cccc(-c2ncn(C)n2)c1OC [Compound 23H] | –
9 | 7.30 to 8.30 | ≤ 6.30 | 6.30 to 7.30 | 6.30 to 7.30 | CCC(=O)c1cnc(Nc2cccc(CS(C)(=O)=O)n2)cc1Nc1cccc(-c2ncn(C)n2)c1OC [Compound 13N] | –
10 | > 8.30 | ≤ 6.30 | ≤ 6.30 | ≤ 6.30 | CCC(=O)c1cnc(Nc2ccc(CN3CC[C@H](F)C3)cn2)cc1Nc1cccc(-c2ncn(C)n2)c1OC [Compound 9KK] | –
11 | ≤ 6.30 | ≤ 6.30 | ≤ 6.30 | ≤ 6.30 | CCC(=O)c1cnc(Nc2cc(C(=O)O)ccn2)cc1Nc1cccc(-c2ncn(C)n2)c1OC [Compound 8E] | –
12 | 7.30 to 8.30 | ≤ 6.30 | ≤ 6.30 | ≤ 6.30 | CCC(=O)c1cnc(Nc2ncc(OC3COC3)cc2F)cc1Nc1cccc(-c2ncn(C)n2)c1OC [Compound 18BBBB] | –
13 | 7.30 to 8.30 | ≤ 6.30 | ≤ 6.30 | ≤ 6.30 | CCC(=O)c1cnc(Nc2ccc3c(c2)COB3O)cc1Nc1cccc(-c2ncn(C)n2)c1OC [Compound 15BB] | –
14 | 7.30 to 8.30 | ≤ 6.30 | ≤ 6.30 | ≤ 6.30 | CCC(=O)c1cnc(Nc2ccc(CN(C)CC#N)cn2)cc1Nc1cccc(-c2ncn(C)n2)c1OC [Compound 9BB] | –
15 | > 8.30 | ≤ 6.30 | ≤ 6.30 | ≤ 6.30 | CCC(=O)c1cnc(Nc2ccc(-c3ncn(C)n3)cn2)cc1Nc1cccc(-c2ncn(C)n2)c1OC [Compound 15C] | –
16 | > 8.30 | ≤ 6.30 | 6.30 to 7.30 | 6.30 to 7.30 | CCC(=O)c1cnc(Nc2ccc(-c3cccn(C)c3=O)cn2)cc1Nc1cccc(-c2ncn(C)n2)c1OC [Compound 16A, 6′-((4-((2-methoxy-3-(1-methyl-1H-1,2,4-triazol-3-yl)phenyl)amino)-5-propionylpyridin-2-yl)amino)-1-methyl-[3,3′-bipyridin]-2(1H)-one] | –
17 | 7.30 to 8.30 | ≤ 6.30 | ≤ 6.30 | ≤ 6.30 | CCC(=O)c1cnc(Nc2cnc(C(N(C)C)C(F)(F)F)cn2)cc1Nc1cccc(-c2ncn(C)n2)c1OC (centres unmarked) [Compound 9VVV] | –
18 | 7.30 to 8.30 | ≤ 6.30 | ≤ 6.30 | ≤ 6.30 | COc1c(Nc2cc(Nc3ccc(-c4cn(C)cn4)cn3)ncc2C(=O)C2CC2)cccc1-c1ncn(C)n1 [Compound 15K] | –
19 | 7.30 to 8.30 | ≤ 6.30 | ≤ 6.30 | ≤ 6.30 | CCC(=O)c1cnc(Nc2ccc(CCN(C)C)nn2)cc1Nc1cccc(-c2ncn(C)n2)c1OC [Compound 11D] | –
20 | > 8.30 | ≤ 6.30 | ≤ 6.30 | ≤ 6.30 | CCC(=O)c1cnc(Nc2cc(C(=O)NC)ccn2)cc1Nc1cccc(-c2ncn(C)n2)c1OC [Compound 8G] | –

Row | pIC50 (TYK2 JH2 domain) | pIC50 (human JAK1; TR-FRET, JAK1 2.5 nM) | pIC50 (human JAK2) | pIC50 (human JAK3) | Compound | pIC50 (human JAK1)
21 | ≤ 6.30 | ≤ 6.30 | ≤ 6.30 | ≤ 6.30 | CCC(=O)c1cnc(NC(=O)[C@@H]2C[C@H]2NC(C)=O)cc1Nc1cccc(-c2ncn(C)n2)c1OC [Compound 22I] | –
22 | > 8.30 | ≤ 6.30 | ≤ 6.30 | ≤ 6.30 | CCC(=O)c1cnc(Nc2ccc(S(=O)(=O)N3CCOCC3)cn2)cc1Nc1cccc(-c2ncn(C)n2)c1OC [Compound 13E] | –
23 | > 8.30 | ≤ 6.30 | ≤ 6.30 | ≤ 6.30 | CCC(=O)c1cnc(Nc2cnc(OCCN)cn2)cc1Nc1cccc(-c2ncn(C)n2)c1OC [Compound 18MM] | –
24 | ≤ 6.30 | ≤ 6.30 | ≤ 6.30 | ≤ 6.30 | CCC(=O)c1cnc(NC(=O)[C@@H]2C[C@H]2NC(=O)OC(C)(C)C)cc1Nc1cccc(-c2ncn(C)n2)c1OC [Compound 22H] | –
25 | > 8.30 | ≤ 6.30 | ≤ 6.30 | ≤ 6.30 | CCC(=O)c1cnc(Nc2ccc([C@@H](C)N3CC[C@H](O)C3)cn2)cc1Nc1cccc(-c2ncn(C)n2)c1OC [Compound 9MM] | –
26 | > 8.30 | ≤ 6.30 | ≤ 6.30 | ≤ 6.30 | CCC(=O)c1cnc(Nc2cc(CN(C)C)ncn2)cc1Nc1cccc(-c2ncn(C)n2)c1OC [Compound 17A, 1-(6-((6-((dimethylamino)methyl)pyrimidin-4-yl)amino)-4-((2-methoxy-3-(1-methyl-1H-1,2,4-triazol-3-yl)phenyl)amino)pyridin-3-yl)propan-1-one] | –
27 | 7.30 to 8.30 | ≤ 6.30 | ≤ 6.30 | ≤ 6.30 | CCC(=O)c1cnc(Nc2ccc(P(C)(C)=O)cn2)cc1Nc1cccc(-c2ncn(C)n2)c1OC [Compound 15DD] | –
28 | > 8.30 | ≤ 6.30 | ≤ 6.30 | ≤ 6.30 | CCC(=O)c1cnc(Nc2ccnc(OCCCN(C)C)n2)cc1Nc1cccc(-c2ncn(C)n2)c1OC [Compound 18HH] | –
29 | > 8.30 | ≤ 6.30 | ≤ 6.30 | ≤ 6.30 | CCC(=O)c1cnc(Nc2ccc(-c3cn(C)cn3)cn2)cc1Nc1nccc(-c2ncn(C)n2)c1OC [Compound 15J] | –
30 | > 8.30 | ≤ 6.30 | ≤ 6.30 | ≤ 6.30 | COc1c(Nc2cc(Nc3ccc(OCCO)cn3)ncc2C(=O)C2CC2)cccc1-c1ncn(C)n1 [Compound 18B] | –
31 | > 8.30 | ≤ 6.30 | ≤ 6.30 | ≤ 6.30 | CCC(=O)c1cnc(Nc2ccc(CN(C)C3CC(F)(F)C3)cn2)cc1Nc1cccc(-c2ncn(C)n2)c1OC [Compound 9EEE] | –
32 | 7.30 to 8.30 | ≤ 6.30 | ≤ 6.30 | 6.30 to 7.30 | CCC(=O)c1cnc(Nc2ccc(OCCOC)cn2)cc1Nc1cccc(-c2ncn(C)n2)c1OC [Compound 18D] | –
33 | 7.30 to 8.30 | ≤ 6.30 | 6.30 to 7.30 | 6.30 to 7.30 | CCC(=O)c1cnc(Nc2ccc(-n3ccnc(C)c3=O)cn2)cc1Nc1cccc(-c2ncn(C)n2)c1OC [Compound 15X] | –
34 | > 8.30 | ≤ 6.30 | ≤ 6.30 | ≤ 6.30 | CCC(=O)c1cnc(Nc2cnc(OC3CCN(C)CC3)cn2)cc1Nc1cccc(-c2ncn(C)n2)c1OC [Compound 18EEE] | –
35 | 6.30 to 7.30 | ≤ 6.30 | ≤ 6.30 | ≤ 6.30 | CCC(=O)c1cnc(NC(=O)C2CC2c2ccccn2)cc1Nc1cccc(-c2ncn(C)n2)c1OC (centres unmarked) [Compound 22B] | –
36 | 6.30 to 7.30 | ≤ 6.30 | 6.30 to 7.30 | 6.30 to 7.30 | CCC(=O)c1cnc(Nc2ccc(S(C)(=O)=O)cn2)cc1Nc1ccc(C(=O)N2CCCC2)cc1OC [Compound 13W] | –
37 | 7.30 to 8.30 | ≤ 6.30 | ≤ 6.30 | ≤ 6.30 | CCC(=O)c1cnc(Nc2ccn(S(=O)(=O)C3CC3)n2)cc1Nc1cccc(-c2ncn(C)n2)c1OC [Compound 21D] | –
38 | 7.30 to 8.30 | ≤ 6.30 | ≤ 6.30 | ≤ 6.30 | CCC(=O)c1cnc(Nc2ccnc(OC3CCN(C)CC3)n2)cc1Nc1cccc(-c2ncn(C)n2)c1OC [Compound 18II] | –
39 | 6.30 to 7.30 | ≤ 6.30 | ≤ 6.30 | ≤ 6.30 | CCC(=O)c1cnc(NC(=O)CC2(O)CC2)cc1Nc1cccc(-c2ncn(C)n2)c1OC [Compound 23C] | –
40 | > 8.30 | ≤ 6.30 | ≤ 6.30 | ≤ 6.30 | CCC(=O)c1cnc(Nc2ccc(-n3ccccc3=O)cn2)cc1Nc1cccc(-c2ncn(C)n2)c1OC [Compound 15A, 6′-((4-((2-methoxy-3-(1-methyl-1H-1,2,4-triazol-3-yl)phenyl)amino)-5-propionylpyridin-2-yl)amino)-2H-[1,3′-bipyridin]-2-one] | –

Row | Compound | pIC50 (TYK2 JH2 domain) | pIC50 (human JAK1; TR-FRET, JAK1 2.5 nM) | pIC50 (human JAK2) | pIC50 (human JAK3) | pIC50 (human JAK1)
41 | CCC(=O)c1cnc(Nc2cc(OCCOC)n(C)n2)cc1Nc1cccc(-c2ncn(C)n2)c1OC [Compound 24A, 1-(4-((2-methoxy-3-(1-methyl-1H-1,2,4-triazol-3-yl)phenyl)amino)-6-((5-(2-methoxyethoxy)-1-methyl-1H-pyrazol-3-yl)amino)pyridin-3-yl)propan-1-one] | > 8.30 | – | 6.30 to 7.30 | 6.30 to 7.30 | < 6.30
